Experimental data from US12729192B2, “CDK9 inhibitor and use thereof” (PHARMABLOCK SCIENCES (NANJING), INC., priority 2020, dated 2026).

How the values were obtained:
CDK7 = target: T1, CDK7 (Homo sapiens, UniProt P50613); experiment: CDK7 kinase activity inhibition (ADP-Glo); type: biochemical; conditions: 10 μM ATP, 2 h at room temperature
T1 construct: purchased Carna Biosciences, Inc
Method: (§1) CDK9 kinase was manufactured by the company or commercially available. CDK1, CDK2 and CDK7 were purchased from Carna Biosciences, Inc. ADP-Glo™ kit was purchased from Promega Corporation. Dithiothreitol (DTT), Tween-20, dimethylsulfoxide (DMSO), bovine serum albumin (BSA) and Tris base were obtained from Sigma at the available highest level of purity.
(§2) General procedures for CDK inhibition determination: The determination was performed in a buffer consisting of 50 μM DTT, 0.1% BSA, 40 mM Tris-HCl pH=7.5 and 20 mM MgCl2. The compound dissolved in DMSO and CDK enzymes were diluted with the buffer. 1 μL of the compound solution in 5% DMSO and 2 μL of the CDK enzyme solution were added to a white low-volume 384-well microtiter plate and incubated for 20 min at room temperature. Ultra pure ATP and the substrate polypeptide (purchased from GenScript Biotech Corporation) were diluted together into the buffer and added to a mixed solution of the compound and the enzyme, 2 μL per well. They were incubated for 2 h at room temperature.
(§3) After the reaction was completed, 5 μL of ADP-Glo™ reagent was added to each well and incubated for 40 min at room temperature, and then 10 μL of test reagent was added to each well and incubated for 30 mi at room temperature. Chemical luminescence values were measured by using a Tecan (Männedorf, Switzerland) multifunctional plate reader Spark for plate reading. The IC50 value of the inhibitor was obtained by fitting the chemical luminescence intensity ratio in the S-shaped dosage reaction curve using Prism 7 (La Jolla, 15 CA) relative to the concentration of the inhibitor.

CDK1 = target: T2, CDK1 (Homo sapiens, UniProt P06493); experiment: CDK1 kinase activity inhibition (ADP-Glo); type: biochemical; conditions: 50 μM ATP, 2 h at room temperature
T2 construct: purchased Carna Biosciences, Inc
Method: as §1, §2, §3

CDK9 = CDK9 (Homo sapiens, UniProt P50750); experiment: CDK9 kinase activity inhibition (ADP-Glo); type: biochemical; conditions: 10 μM ATP, 2 h at room temperature
Method: as §1, §2, §3

CDK2 = target: T3, CDK2 (Homo sapiens, UniProt P24941); experiment: CDK2 kinase activity inhibition (ADP-Glo); type: biochemical; conditions: 10 μM ATP, 2 h at room temperature
T3 construct: purchased Carna Biosciences, Inc
Method: as §1, §2, §3

MOLM-13 cells = experiment: Tumor cell proliferation inhibition experiment (CellTiter-Glo); type: cell-based; conditions: Homo sapiens; acute myeloid leukemia cell line MOLM-13; 16 h incubation; CellTiter-Glo; read-out: MOLM-13 (nM) IC50, cell proliferation inhibition
Text: An acute myeloid leukemia (AML) cell line (MOLM-13) was purchased from NANJING COBIOER BIOSCIENCES CO., LTD. An RPMI1640 medium and a penicillin-streptomycin double-antibody were purchased from ThermoFisher (Waltham, MA, USA). Certified fetal bovine serum (FBS) was purchased from Biological Industries (Israel). A Corning 384-well cell culture plate was purchased from CORNING (USA). Cell-Titer Glo® was purchased from Promega Corporation (Madison, WI, USA).
To evaluate the ability of the synthetic compound to inhibit the proliferation of MOLM-13 cells, MOLM-13 cells at an exponential growth stage were inoculated at a density of 500,000 cell/mL in the RPMI1640 medium containing 20% bovine serum and 1% penicillin-streptomycin double-antibody, and the 384-well plate contained 20 μL per well and placed overnight in an 37° C., 5% CO2 incubator. Compound powder was dissolved in DMSO to prepare a storage mother liquor with a concentration of 2 mM, and 12 dilutions with three-fold gradient concentrations were further prepared. 1 μL of gradient-diluted DMSO solution was added to 99 μL of cell culture medium (the final maximum concentration of the compound in the assay was 10 uM and the final concentration of DMSO was 0.5%). 20 μL of compound solution in the medium was added at gradients to each cell-coated test well of the 384-well plate. After the compound solution was added, the 384-well plate was incubated for 16 h in a 37° C., 5% CO2 incubator. Cell viability was determined by quantifying ATPs present in test wells using the CellTiter-Glo kit from Promega (Madison, WI, USA). After 20 minutes of incubation, readings were obtained under a chemical luminescence procedure using Tecan's Spark multifunctional plate reader. The concentration (IC50 value) of the compound at which the cell survival rate was inhibited by 50% was determined using an S-shaped dosage response model (variable slope, four parameters) in Prism 7 (LaJolla, CA).

CDK9, sequence (P50750 whole entry): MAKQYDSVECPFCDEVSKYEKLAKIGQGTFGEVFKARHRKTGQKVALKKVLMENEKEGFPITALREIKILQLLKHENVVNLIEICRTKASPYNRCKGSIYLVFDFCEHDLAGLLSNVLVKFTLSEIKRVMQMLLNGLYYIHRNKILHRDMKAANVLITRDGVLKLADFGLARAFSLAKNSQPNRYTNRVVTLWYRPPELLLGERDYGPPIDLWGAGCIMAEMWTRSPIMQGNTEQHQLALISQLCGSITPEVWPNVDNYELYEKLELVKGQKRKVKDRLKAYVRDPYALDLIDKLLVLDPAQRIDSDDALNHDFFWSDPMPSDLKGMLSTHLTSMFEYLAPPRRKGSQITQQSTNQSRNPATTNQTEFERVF
CDK9, sequence (O60563 whole entry partner): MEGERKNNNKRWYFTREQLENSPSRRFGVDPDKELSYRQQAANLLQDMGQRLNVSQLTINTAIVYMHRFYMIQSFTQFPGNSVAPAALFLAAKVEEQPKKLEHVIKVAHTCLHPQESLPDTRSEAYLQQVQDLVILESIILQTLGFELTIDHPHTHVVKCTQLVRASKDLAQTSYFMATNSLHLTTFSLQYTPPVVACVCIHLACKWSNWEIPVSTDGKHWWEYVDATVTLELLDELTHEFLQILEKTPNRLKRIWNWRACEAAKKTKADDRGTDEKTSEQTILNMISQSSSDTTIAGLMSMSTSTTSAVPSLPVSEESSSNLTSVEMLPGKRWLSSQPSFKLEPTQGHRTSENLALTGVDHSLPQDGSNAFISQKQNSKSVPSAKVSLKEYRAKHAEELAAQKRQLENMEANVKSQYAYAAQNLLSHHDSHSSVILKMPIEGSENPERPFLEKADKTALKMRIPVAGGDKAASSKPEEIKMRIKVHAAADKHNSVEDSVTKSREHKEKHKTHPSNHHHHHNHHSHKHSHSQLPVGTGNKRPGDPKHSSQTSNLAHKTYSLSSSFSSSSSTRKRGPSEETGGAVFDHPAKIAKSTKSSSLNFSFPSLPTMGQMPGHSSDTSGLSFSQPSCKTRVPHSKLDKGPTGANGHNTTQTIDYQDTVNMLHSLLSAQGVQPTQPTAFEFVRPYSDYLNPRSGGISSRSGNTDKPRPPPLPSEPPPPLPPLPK
T1 sequence (P50613 whole entry): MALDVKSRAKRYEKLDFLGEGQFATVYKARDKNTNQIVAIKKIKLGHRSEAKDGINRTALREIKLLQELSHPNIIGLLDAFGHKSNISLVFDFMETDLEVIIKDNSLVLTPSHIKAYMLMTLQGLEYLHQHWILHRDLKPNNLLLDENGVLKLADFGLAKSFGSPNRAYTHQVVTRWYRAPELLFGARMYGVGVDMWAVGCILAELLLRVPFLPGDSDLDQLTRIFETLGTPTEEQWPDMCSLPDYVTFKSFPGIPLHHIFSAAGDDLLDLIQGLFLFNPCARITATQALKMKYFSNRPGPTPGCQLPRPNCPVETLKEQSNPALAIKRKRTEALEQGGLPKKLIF
T1 sequence (P51946 whole entry partner): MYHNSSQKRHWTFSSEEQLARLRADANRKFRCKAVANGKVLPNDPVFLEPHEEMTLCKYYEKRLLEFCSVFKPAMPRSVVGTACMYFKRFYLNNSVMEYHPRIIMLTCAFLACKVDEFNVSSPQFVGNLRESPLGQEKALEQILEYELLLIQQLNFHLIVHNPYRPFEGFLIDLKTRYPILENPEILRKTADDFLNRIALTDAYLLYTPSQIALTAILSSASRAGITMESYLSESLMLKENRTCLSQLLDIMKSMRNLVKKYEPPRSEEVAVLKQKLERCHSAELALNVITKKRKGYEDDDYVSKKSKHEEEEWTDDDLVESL
T1 sequence (P51948 whole entry partner): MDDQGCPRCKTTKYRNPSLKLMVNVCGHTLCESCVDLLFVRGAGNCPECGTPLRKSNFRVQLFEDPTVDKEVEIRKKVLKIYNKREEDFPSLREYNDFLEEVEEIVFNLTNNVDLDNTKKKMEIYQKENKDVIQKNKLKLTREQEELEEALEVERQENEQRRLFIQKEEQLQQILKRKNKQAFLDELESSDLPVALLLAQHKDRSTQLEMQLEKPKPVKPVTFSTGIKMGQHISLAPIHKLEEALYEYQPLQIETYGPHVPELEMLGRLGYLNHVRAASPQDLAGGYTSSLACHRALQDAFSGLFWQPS
T2 sequence (P06493 whole entry): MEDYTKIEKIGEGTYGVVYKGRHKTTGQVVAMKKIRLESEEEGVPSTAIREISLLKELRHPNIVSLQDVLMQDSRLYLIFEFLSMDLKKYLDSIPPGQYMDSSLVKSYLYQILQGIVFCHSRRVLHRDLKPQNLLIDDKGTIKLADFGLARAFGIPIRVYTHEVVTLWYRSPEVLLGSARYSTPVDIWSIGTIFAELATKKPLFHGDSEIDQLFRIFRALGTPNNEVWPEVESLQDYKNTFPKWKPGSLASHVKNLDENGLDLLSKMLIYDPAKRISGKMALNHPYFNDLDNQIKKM
T2 sequence (P14635 whole entry partner): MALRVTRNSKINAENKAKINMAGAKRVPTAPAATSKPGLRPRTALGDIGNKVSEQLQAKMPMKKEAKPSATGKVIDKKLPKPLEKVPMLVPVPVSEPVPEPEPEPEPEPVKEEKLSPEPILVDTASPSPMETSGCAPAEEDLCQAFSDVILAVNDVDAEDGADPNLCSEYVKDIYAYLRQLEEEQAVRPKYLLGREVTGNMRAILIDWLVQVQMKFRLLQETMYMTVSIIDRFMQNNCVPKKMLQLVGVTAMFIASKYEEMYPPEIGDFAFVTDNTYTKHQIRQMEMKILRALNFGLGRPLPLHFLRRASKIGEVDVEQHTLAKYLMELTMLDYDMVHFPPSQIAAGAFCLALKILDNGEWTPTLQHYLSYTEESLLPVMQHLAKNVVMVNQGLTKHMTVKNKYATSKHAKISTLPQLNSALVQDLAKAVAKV

Row | Structure (SMILES) | IC50 (CDK7) [nM] | IC50 (CDK1) [nM] | IC50 (CDK9) [nM] | IC50 (CDK2) [nM] | IC50 (MOLM-13 cells) [nM]
1 | CC(=O)NC[C@H]1CCC(F)(F)CN1C(=O)c1nc(Nc2cc(C)ccn2)ccc1C [Compound 8, (R)—N-((5,5-difluoro-1-(3-methyl-6-((4-methylpyridin-2-yl)amino)pyridine-2-carbonyl)piperidin-2-yl)methyl)acetamide] | 8380 | 8730 | 8.9 | 2590 | –
2 | COc1ccnc(Nc2ccc(C)c(C(=O)N3CC(F)(F)CC[C@@H]3CNC(C)=O)n2)c1 [Compound 9, (R)—N-((5,5-difluoro-1-(6-((4-methoxypyridin-2-yl)amino)-3-methylpyridine-2-carbonyl)piperidin-2-yl)methyl)acetamide] | > 10000 | > 10000 | 7.8 | 8450 | –
3 | COc1cc(Nc2ccc(C)c(C(=O)N3CC(F)(F)CC[C@@H]3CNC(C)=O)n2)ncc1Cl [Compound 10, (R)—N-((1-(6-((5-chloro-4-methoxypyridin-2-yl)amino)-3-methylpyridine-2-carbonyl)-5,5-difluoropiperidin-2-yl)methyl)acetamide] | 9860 | > 10000 | 361 | > 10000 | –
4 | CC(=O)NC[C@H]1CCC(F)(F)CN1C(=O)c1nc(Nc2cc(C3CC(F)(F)C3)[nH]n2)ccc1C [Compound 15, (R)—N-((1-(6-((5-(3,3-difluorocyclobutyl)-1H-pyrazol-3-yl)amino)-3-methylpyridine-2-carbonyl)-5,5-difluoropiperidin-2-yl)methyl)acetamide] | > 10000 | 503 | 4.3 | 12 | –
5 | CC(=O)NC[C@H]1CCC(F)(F)CN1C(=O)c1nc(Nc2cc(C(C)(C)C)ccn2)ccc1C [Compound 17, (R)—N-((1-(6-((4-(t-butyl)pyridin-2-yl)amino)-3-methylpyridine-2-carbonyl)-5,5-difluoropiperidin-2-yl)methyl)acetamide] | – | > 10000 | 19.2 | 2870 | –
6 | CC(=O)NC[C@H]1CCC(F)(F)CN1C(=O)c1nc(Nc2ccccn2)ccc1C [Compound 22, (R)—N-((5,5-difluoro-1-(3-methyl-6-(pyridin-2-ylamino)pyridine-2-carbonyl)piperidin-2-yl)methyl)acetamide] | – | > 10000 | 35 | > 10000 | –
7 | CC(=O)NC[C@H]1CCC(F)(F)CN1C(=O)c1nc(Nc2cc(CF)ccn2)ccc1C [Compound 28, (R)—N-((5,5-difluoro-1-(6-((4-(fluoromethyl)pyridin-2-yl)amino)-3-methylpyridine-2-carbonyl)piperidin-2-yl)methyl)acetamide] | – | – | 9.4 | 1260 | 133
8 | Cc1ccc(Nc2cc(C#N)ccn2)nc1C(=O)N1CC(F)(F)CC[C@@H]1CNC(=O)OC(C)(C)C [Compound 31, (R)-((1-(6-((4-cyanopyridin-2-yl)amino)-3-methylpyridine-2-carbonyl)-5,5-difluoropiperidin-2-yl)methyl)t-butyl carbamate] | 7030 | 1470 | 3.7 | 180 | –
9 | Cc1ccc(Nc2cc(OC(F)(F)F)ccn2)nc1C(=O)N1CC(F)(F)CC[C@@H]1CNS(C)(=O)=O [Compound 32, (R)—N-((5,5-difluoro-1-(3-methyl-6-((4-(trifluoromethoxy)pyridin-2-yl)amino)pyridine-2-carbonyl)piperidin-2-yl)methyl)methanesulfonamide] | 780 | 1390 | 11.6 | 305 | –
10 | Cc1ccc(Nc2cc(OC(F)(F)F)ccn2)nc1C(=O)N1CC(F)(F)CC[C@@H]1CNC(=O)OC(C)(C)C [Compound 33, (R)-((5,5-difluoro-1-(3-methyl-6-((4-(trifluoromethoxy)pyridin-2-yl)amino)pyridine-2-carbonyl)piperidin-2-yl)methyl)t-butyl carbamate] | > 10000 | – | 38 | 1420 | –
11 | CCOc1ccnc(Nc2ccc(C)c(C(=O)N3CC(F)(F)CC[C@@H]3CNC(C)=O)n2)c1 [Compound 35, (R)—N-((1-(6-((4-ethoxypyridin-2-yl)amino)-3-methylpyridine-2-carbonyl)-5,5-difluoropiperidin-2-yl)methyl)acetamide] | > 10000 | > 10000 | 5 | 6840 | –
12 | CCOc1ccnc(Nc2ccc(C)c(C(=O)N3CC(F)(F)CC[C@@H]3CNC(=O)OC(C)(C)C)n2)c1 [Compound 36, (R)-((1-(6-((4-ethoxypyridin-2-yl)amino)-3-methylpyridine-2-carbonyl)-5,5-difluoropiperidin-2-yl)methyl)t-butyl carbamate] | > 10000 | – | 231 | > 10000 | –
13 | Cc1ccc(Nc2cc(OC(F)(F)F)ccn2)nc1C(=O)N1CCCC[C@@H]1CNC(=O)OC(C)(C)C [Compound 41, (R)-((1-(3-methyl-6-((4-(trifluoromethoxy)pyridin-2-yl)amino)pyridine-2-carbonyl)piperidin-2-yl)methyl)t-butyl carbamate] | > 10000 | – | 245 | 9260 | –
14 | Cc1ccc(Nc2cc(OC(F)(F)F)ccn2)nc1C(=O)N1CCCN2CCCC2C1 (stereo not shown) [Compound 46, (Hexahydro-1H-pyrrolo[1,2-a][1,4]diazepin-2-2(3H)-yl)(3-methyl-6-((4-(trifluoromethoxy)pyridin-2-yl)amino)pyridin-2-yl)methanone] | – | 4120 | 86.9 | 770 | –
15 | Cc1ccc(Nc2cc(OC(F)(F)F)ccn2)nc1C(=O)N1CC(F)(F)CCC1C(=O)N1CCCC1 (stereo not shown) [Compound 47, (5,5-Difluoro-1-(3-methyl-6-((4-(trifluoromethoxy)pyridin-2-yl)amino)pyridine-2-carbonyl)piperidin-2-yl)(pyrrolidin-1-yl)methanone] | – | – | 119 | 844 | 938
16 | Cc1ccc(Nc2cc(OC(F)(F)F)ccn2)nc1C(=O)N1CC(F)(F)CC[C@@H]1CN1CCCC1=O [Compound 48, (R)-1-((5,5-difluoro-1-(3-methyl-6-((4-(trifluoromethoxy)pyridin-2-yl)amino)pyridine-2-carbonyl)piperidin-2-yl)methyl)pyrrolidinone-2-one] | – | – | 16.4 | 2870 | 683
17 | Cc1ccc(Nc2cc(OC(F)(F)F)ccn2)nc1C(=O)N1CC(F)(F)CC[C@@H]1CNC(=O)C1CC1 [Compound 51, (R)—N-((5,5-difluoro-1-(3-methyl-6-((4-(trifluoromethoxy)pyridin-2-yl)amino)pyridine-2-carbonyl)piperidin-2-yl)methyl)cyclopropanecarboxamide] | – | – | 7.7 | 1270 | 112
18 | CCOc1ccnc(Nc2ccc(C)c(C(=O)N3CC(F)(F)CC[C@@H]3CNC(=O)OC)n2)c1 [Compound 53, (R)-((1-(6-((4-ethoxypyridin-2-yl)amino)-3-methylpyridine-2-carbonyl)-5,5-difluoropiperidin-2-yl)methyl)methyl carbamate] | – | > 10000 | 19.7 | > 10000 | –
19 | CC(=O)NC[C@H]1CCC(F)(F)CN1C(=O)c1cc(Nc2cc(OC(F)(F)F)ccn2)ccc1C [Compound 68, (R)—N-((5,5-difluoro-1-(2-methyl-5-((4-(trifluoromethoxy)pyridin-2-yl)amino)benzoyl)piperidin-2-yl)methyl)acetamide] | – | > 10000 | 265 | > 10000 | –
